Experiments:
Flp-In™ T-REx™-293 cells [1] = format: cell-based, human
Flp-In™ T-REx™-293 cells [2] = test: Succinate oxidation by digitonin permeabilized cells, Clark oxygen electrode; format: cell-based, human; conditions: AOX-expressing cells, 100 μM propyl gallate added after cyanide
Drosophila mitochondria = test: Oxygen consumption of isolated mitochondrial suspensions from flies; format: biochemical, Drosophila melanogaster; conditions: mitochondria from AOX-expressing flies

`CCCOC(=O)c1cc(O)c(O)c(O)c1` [n-propyl gallate] was tested, and the “inhibition of residual cyanide-insensitive respiration” value (Flp-In™ T-REx™-293 cells [1]) was “completely inhibited”, the “inhibition of respiration in the presence of cyanide” value (Flp-In™ T-REx™-293 cells [1]) was “almost completely inhibited” and the “inhibition of cyanide-resistant succinate oxidation” value (Flp-In™ T-REx™-293 cells [2]) was “fully inhibited”. The “sensitivity of residual cyanide-insensitive respiratory activity to AOX inhibitors” value (Drosophila mitochondria; cyanide present) was “sensitive” and the “effect of AOX inhibitors on respiration when cyanide absent” value (Drosophila mitochondria; no cyanide) was “only a small effect”.
